The test system of this experiment is male Sprague Dawley rats. Briefly: Rat mustard oil model of visceral pain. In kind it is in vivo. The settings on record: data combined from two studies. The protocol: All behavioural responses consistent with the presence of pain were determined following intra rectal injection of mustard oil in male Sprague Dawley rats. Typical behavioural responses consistent with the presence of pain following intra-colonic mustard oil injection include: arching, abdominal lifting, abdominal tensing, stretching, extending the rear leg (when lying down), raising and lowering the testicles, tip-toeing and writhing.
Male Sprague Dawley rats (130 g-160 g) were briefly sedated with 50% oxygen/50% carbon dioxide and 0.2 ml of 3% mustard oil injected into the colorectum, 1.5 cm from the anus. The anus was plugged with vaseline and animals placed in observational cages to which they had previously been acclimatised for 45 minutes prior to mustard oil injection. The number of visceral pain related behaviours, which consisted primarily of abdominal arching, were counted over a 25 minute period and the animals culled by cervical dislocation.
In separate studies, the effects of alosetron (0.1, 0.3 and 1.0 mg/kg n=10 per group), gabapentin (10, 30 and 100 mg/kg n=10 per group) and amitriptyline (3, 10 and 30 mg/kg n=9-10 per group) or vehicle (saline for alosetron and amitriptyline 10% 1-methyl-2-pyrolidone in saline for gabapentin n=10 per study) given sub cutaneously 15 minutes prior to injection of 3% mustard oil were examined on pain behaviour. Results are expressed as mean reduction in percentage of behaviours compared to vehicle treated animals and were statistically compared to vehicle treated animals using a one way ANOVA with Dunnett's comparison, p<0.05 considered significant.
The effect of the compound of Example 1 (0.1, 0.3, 1.0, 3.0, 10 and 30 mg/kg, n 9-20 per dosage) or vehicle (1% methyl cellulose, n=20) given orally 60 minutes prior to injection of mustard oil (3% mustard oil, 70% ethanol in saline) were examined on pain behaviour. The total number of visceral pain related behaviours, which consisted primarily of abdominal arching, were counted over a 25 minute period and the animals culled by cervical dislocation. Behaviours were normalised as the percentage of the vehicle group mean and expressed as mean percentage reductions. Data was combined from two studies and normalised as the percentage of the vehicle group mean for each individual study and expressed as a mean percentage reduction for both studies. Percentage reduction of behaviours compared to vehicle treated animals were analysed statistically using a one way ANOVA with Dunnett's comparison, p<0.05 considered significant.

Counter-ions that a name gives are not always drawn.

In the case of `CC(C)(NCc1cc(-c2ccc(C(F)(F)F)cc2)ccn1)C(N)=O` [Example E1, 2-Methyl-N^2-({4-[4-trifluoromethyl)phenyl]-2-pyridinyl}methyl)alaninamide hydrochloride], the “reduction in behaviours compared to vehicle treated animals” value (from here on “reduction in behaviours”) (0.1 mg/kg orally 60 minutes prior to mustard oil) amounted to 16%; the “reduction in behaviours” value (0.3 mg/kg orally 60 minutes prior to mustard oil) is 24%; the “reduction in behaviours” value (1.0 mg/kg orally 60 minutes prior to mustard oil) was found to be 41%; the “reduction in behaviours” value (3.0 mg/kg orally 60 minutes prior to mustard oil) worked out at 64%; the “reduction in behaviours” value (10 mg/kg orally 60 minutes prior to mustard oil) amounted to 76%; the “reduction in behaviours” value (30 mg/kg orally 60 minutes prior to mustard oil) is 85%.

The record behind these values is patent US20080058391A1, “NOVEL COMPOUNDS” (GLAXO GROUP LIMITED, priority 2006, published 2008).
